Measurements published in ChEMBL document CHEMBL3297655, “Beyond affinity: enthalpy-entropy factorization unravels complexity of a flat structure-activity relationship for inhibition of a tRNA-modifying enzyme” (J Med Chem, 2014).

How the values were obtained:
[1] = Inhibition of tRNA-guanine transglycosylase (unknown origin) assessed as buffer-corrected enthalpy values at 25 degC at 200 to 300 uM by isothermal titration calorimetry
[2] = Inhibition of tRNA-guanine transglycosylase (unknown origin) assessed as entropy at 25 degC at 200 to 300 uM by isothermal titration calorimetry
[3] = Inhibition of tRNA-guanine transglycosylase (unknown origin) assessed as Gibbs free enthalpy at 25 degC at 200 to 300 uM by isothermal titration calorimetry

Q: For `CNc1nc2cc3c(=O)[nH]c(N)nc3cc2[nH]1`, which deltaH [1] is on record?
A: The deltaH was -23.3 kcal/mol.

Q: And the -TdeltaS [2]?
A: The -TdeltaS was 13.3 kcal/mol.

Q: And the deltaG [3]?
A: The deltaG was -9.94 kcal/mol.

Q: Which deltaH [1] does the source give for `O=c1[nH]cnc2cc3[nH]c(NCCN4CCCCC4)nc3cc12` here?
A: Its deltaH is -12.1 kcal/mol.

Q: And the -TdeltaS [2]?
A: The -TdeltaS was 3.37 kcal/mol.

Q: What about the deltaG [3] of the same molecule?
A: Its deltaG is -8.72 kcal/mol.

Q: Which deltaH [1] does the source give for `Nc1nc2cc3[nH]c(NCCN4CCCCC4)nc3cc2c(=O)[nH]1` here?
A: Its deltaH is -18.9 kcal/mol.

Q: What about the -TdeltaS [2] of the same molecule?
A: Its -TdeltaS is 8.68 kcal/mol.

Q: What about the deltaG [3] of the same molecule?
A: Its deltaG is -10.2 kcal/mol.

Q: What does the source list for `Nc1nc2cc3[nH]c(NCCN4CCOCC4)nc3cc2c(=O)[nH]1`?
A: deltaH [1]: -23 kcal/mol; -TdeltaS [2]: 12.9 kcal/mol; deltaG [3]: -10.2 kcal/mol

Q: For `CNc1nc2cc3c(=O)[nH]cnc3cc2[nH]1`, which deltaH [1] is on record?
A: Its deltaH is -11.4 kcal/mol.

Q: What about the -TdeltaS [2] of the same molecule?
A: Its -TdeltaS is 2.68 kcal/mol.

Q: What about the deltaG [3] of the same molecule?
A: The deltaG was -8.72 kcal/mol.

Q: Which deltaH [1] does the source give for `O=c1[nH]cnc2cc3nc(NCCN4CCOCC4)[nH]c3cc12` here?
A: Its deltaH is -11.7 kcal/mol.

Q: What about the -TdeltaS [2] of the same molecule?
A: The -TdeltaS was 2.92 kcal/mol.

Q: What about the deltaG [3] of the same molecule?
A: The deltaG was -8.77 kcal/mol.

Q: Which results are given for `O=c1[nH]cnc2cc3nc(NCc4cccs4)[nH]c3cc12`?
A: deltaH [1]: -10.1 kcal/mol; -TdeltaS [2]: 2.17 kcal/mol; deltaG [3]: -7.89 kcal/mol

Q: For `Nc1nc2cc3nc(NCc4cccs4)[nH]c3cc2c(=O)[nH]1`, which deltaH [1] is on record?
A: Its deltaH is -15.8 kcal/mol.

Q: And the -TdeltaS [2]?
A: The -TdeltaS was 6.36 kcal/mol.

Q: What about the deltaG [3] of the same molecule?
A: Its deltaG is -9.49 kcal/mol.
